Laboratory results published in US20230346790A1, “PHARMACEUTICAL COMPOSITION FOR PREVENTION OR TREATMENT OF CANCERS ASSOCIATED WITH KRAS MUTATION” (WELLMARKER BIO CO., LTD., priority 2020, published 2023).
Entries after “also recorded” stand apart in the source; their conditions may differ.

What was measured:
[1] = system: cetuximab-resistant cell line R2 (LIM1215, KRAS G13D, RON Δ155); experiment: Cell death rate by trypan blue staining and cell counting, cetuximab-resistant line; format: cell-based; settings: cetuximab-resistant cell line R2, 1 µM, 48 hours
Procedure: (§1) The parent cell line LIM1215 and the cetuximab-resistant cell line R2 were counted, and each of them was seeded at 3×10^5 cells in a 60 mm dish. After 24 hours, treatment with 1 µM of each of the compounds of Example 1, Example 2, Example 3, Example 4, Example 5, positive control 1 (BMS-777607), positive control 2 (crizotinib), and positive control 3 (cabozantinib) was performed. After 48 hours had elapsed since the treatment, the cells were collected, resuspended in 1x phosphate buffered saline (PBS), and stained with a trypan blue solution. The stained cells were counted using a hemocytometer. Cell counting was performed in duplicate, and the mean and the standard deviation were calculated.

[2] = system: cell line R2 exhibiting secondary resistance to cetuximab, overexpressing β-catenin; experiment: Cell death induction after β-catenin overexpression, trypan blue exclusion assay; format: cell-based; settings: 48 hours
Procedure: (§2) Subsequently, all cells were collected when 48 hours had elapsed. Cell death induction efficacy was compared and analyzed using a trypan blue exclusion assay. In addition, using these samples, changes in expression of respective proteins were compared and analyzed with the western blotting method.

[3] = system: pTyr-mRON, p-ERK, β-catenin, c-myc, cleaved caspase-3 in cell line R2; experiment: Western blotting of protein expression after empty vector or β-catenin transfection; format: cell-based
Procedure: The parent cell line LIM1215 and the cetuximab-resistant cell line R2 were counted. 2×10^6 cells of each cell line were washed with 1x PBS once and then lysed with 1x RIPA lysis buffer. The cell lysate was reacted on ice for 20 minutes, and then centrifuged at 13,000 rpm for 20 minutes at 4° C. to obtain a supernatant. After proteins in the obtained supernatant were quantified using Bradford method, 20 µg of the protein was subjected to sodium-polyacrylamide gel electrophoresis (SDS-PAGE).
Transfer was performed using polyvinylidene fluoride (PVDF) membrane. Then, each of phospho-RON antibody (MyBiosource, Inc., cat# MBS462024; 1:500), RON antibody (Santa Cruz Biotechnology, cat# sc-374626; 1:1,000), phospho-EGFR antibody (Cell Signaling Technology, Inc., cat# 2234; 1:1,000), EGFR antibody (Cell Signaling Technology, Inc., cat# 2232; 1:1,000), phospho-Akt antibody (Cell Signaling Technology, Inc., cat# 4060; 1:1,000), Akt antibody (Cell Signaling Technology, Inc., cat# 9272; 1:1,000), phospho-ERK antibody (Cell Signaling Technology, Inc., cat# 4370; 1:1,000), ERK antibody (Cell Signaling Technology, Inc., cat# 4695; 1:1,000), phospho-β-catenin antibody (Cell Signaling Technology, Inc., cat# 9561; 1:1,000), β-catenin antibody (Cell Signaling Technology, Inc., cat# 8480; 1:1,000), c-myc antibody (Santa Cruz Biotechnology, cat# sc-40; 1:500), and β-actin antibody (Santa Cruz Biotechnology, cat# sc-47778; 1:1,000) was diluted in 5% skim milk tris buffered saline with Tween 20 (TBS-T) solution and reacted at 4° C. overnight.
After completion of the reaction, washing with the TBS-T solution was performed three times for 10 minutes each. Subsequently, anti-mouse-HRP or anti-rabbit-HRP (Cell Signaling Technology, Inc., cat# 7074 or 7076; 1:2,000) was diluted in the 5% skim milk TBS-T solution, and then reacted at room temperature for 2 hours. Then, washing with the TBS-T solution was performed three times for 10 minutes each, and then development was performed using an ECL solution (GE Healthcare, cat# RPN2108).
as §2

[4] = system: cell line R2 exhibiting secondary resistance to cetuximab (LIM1215, KRAS G13D); experiment: Tumor growth inhibition in mice transplanted with cetuximab-resistant cell line R2; format: in vivo, BALB/c nude mice; settings: R2 xenograft mice
Procedure: 5-Week-old female BALB/c nude mice were purchased and acclimatized for 1 week. […] The compound of Example 1 was orally administered when the tumor reached a size of about 100 mm^3. The compound of Example 1 was administered once a day for 2 weeks, and tumor size and body weight were measured twice a week.
(§3) After completion of the 4-week experiment, the experimental animals were euthanized, and then the tumors were extracted and weighed. In addition, with respect to the tumor tissues, changes in expressions of pTyr-mRON, mRON, β-catenin, and cleaved caspase-3 were analyzed with immunohistochemical staining.

[5] = system: pTyr-mRON, mRON, β-catenin, cleaved caspase-3 in tumor tissues; experiment: Immunohistochemical staining of extracted tumor tissues; format: in vivo, BALB/c nude mice; settings: R2 xenograft
Procedure: as §3

parent cell line LIM1215 = experiment: Cell death rate by trypan blue staining and cell counting, cetuximab-sensitive parent line; format: cell-based; settings: parent cell line LIM1215, 1 µM, 48 hours
Procedure: as §1

[6] = cell line R2, β-catenin overexpressed
[7] = cell line R2 transfected with the empty vector

Structure (SMILES): CCOc1ccn(-c2ccc(F)cc2)c(=O)c1C(=O)Nc1ccc(Oc2ccnc3cc(-c4ccc(CN5CCOCC5)cn4)sc23)c(F)c1.Cl [Example 1, 4-Ethoxy-N-[3-Fluoro-4-({2-[5-(Morpholinomethyl)Pyridine-2-yl]Thieno[3,2-b]Pyridine-7-yl}Oxy)Phenyl]-1-(4-Fluorophenyl)-2-Oxo-1,2-Dihydropyridine-3-Carboxamide Hydrochloride]
- cell death rate ([1]; Hydrochloride): high cell death rate; also recorded: cell death was effectively induced
- cell death induction efficacy [2]: reduced
- expression of pTyr-mRON ([3]; cell line R2, regardless of β-catenin, western blotting): decreased
- expression of c-myc [3, 6]: increased again
- expression of cleaved caspase-3 [3, 6]: decreased
- expression of p-ERK [3, 6]: increased again
- expression of β-catenin [3, 6]: increased again
- expression of c-myc [3, 7]: decreased
- expression of p-ERK [3, 7]: decreased
- expression of β-catenin [3, 7]: decreased
- Tumor growth inhibition (TGI, %) ([4]; 15 mg/kg, oral once a day): 62.3±4.5%
- tumor size inhibition effect as compared with cetuximab ([4]; small dose): remarkably excellent tumor size inhibition effect
- expression of cleaved caspase-3 in tumor tissue [5]: increased
- expression of pTyr-mRON in tumor tissue [5]: decreased
- expression of β-catenin in tumor tissue [5]: decreased

Structure (SMILES): CCOc1ccn(-c2ccccc2)c(=O)c1C(=O)Nc1ccc(Oc2ccnc3cc(-c4ccc(CN5CCN(C)CC5)cn4)sc23)c(F)c1.Cl [Example 3, 4-Ethoxy-N-{3-Fluoro-4-[(2-{5-[(4-Methylpiperazin-1-yl)Methyl]Pyridin-2-yl}Thieno[3,2-b]Pyridin-7-yl)Oxy]Phenyl}-2-Oxo-1-Phenyl-1,2-Dihydropyridine-3-Carboxamide Hydrochloride]
- cell death rate ([1]; Hydrochloride): cell death was effectively induced

Structure (SMILES): CCOc1ccn(-c2ccccc2)c(=O)c1C(=O)Nc1ccc(Oc2ccnc3cc(-c4ccc(CNCCOC)cn4)sc23)c(F)c1.Cl [Example 2, 4-Ethoxy-N-(3-Fluoro-4-{[2-(5-{[(2-Methoxyethyl)Amino]Methyl}Pyridine-2-yl)Thieno[3,2-b]Pyridine-7-yl]Oxy}Phenyl)-2-Oxo-1-Phenyl-1,2-Dihydropyridine-3-Carboxamide Hydrochloride]
- cell death rate ([1]; Hydrochloride): cell death was effectively induced

Structure (SMILES): COc1cc2c(Oc3ccc(NC(=O)c4c5c(cn(-c6ccc(F)cc6)c4=O)CCO5)cc3F)ccnc2cc1OCCCN1CC(C#N)C1 [Example 5, N-(4-((7-(3-(3-Cyanoazetidine-1-yl)Propoxy)-6-Methoxyquinoline-4-yl)Oxy)-3-Fluorophenyl)-5-(4-Fluorophenyl)-6-Oxo-2,3,5,6-Tetrahydrofuro[3,2-c]Pyridine-7-Carboxamide]
- cell death rate [1]: cell death was effectively induced

Structure (SMILES): C[C@@H](Oc1cc(-c2cnn(C3CCNCC3)c2)cnc1N)c1c(Cl)ccc(F)c1Cl [positive control 2, reference compound]
- cell death rate (parent cell line LIM1215): increased cell death rate
- cell death rate [1]: cell death was not induced

Structure (SMILES): COc1cc2c(Oc3ccc(NC(=O)c4c5c(cn(-c6ccc(F)cc6)c4=O)CCO5)cc3F)ccnc2cc1OCCN1CCOCC1 [Example 4, N-(3-Fluoro-4-((6-Methoxy-7-(2-Morpholinoethoxy)Quinolin-4-yl)Oxy)Phenyl)-5-(4-Fluorophenyl)-6-Oxo-2,3,5,6-Tetrahydrofuro[3,2-c]Pyridine-7-Carboxamide]
- cell death rate [1]: cell death was effectively induced

Structure (SMILES): CCOc1ccn(-c2ccc(F)cc2)c(=O)c1C(=O)Nc1ccc(Oc2ccnc(N)c2Cl)c(F)c1 [positive control 1, reference compound]
- cell death rate (parent cell line LIM1215): cell death was not induced
- cell death rate [1]: cell death was not induced
